Here are results for nine compounds from patent US20260028354A1, “TETRAHYDRONAPHTHALENE DERIVATIVES AS ESTROGEN RECEPTOR DEGRADERS” (REGENT OF THE UNIVERSITY OF MICHIGAN, priority 2022, published 2026).

One test deals with CRBN/DDB1 (Homo sapiens (Human), UniProt Q96SW2). Type of test: binding. Conditions: His tagged CRBN+DDB1, Cy5-labeled Thalidomide probe, one hour; read-out: CRBN HTRF IC50. Here is the method: The binding potency was determined using HTRF assay technology (Perkin Elmer). Compounds were serially diluted in DMSO and […] volume was transferred to white 384-well plate.
A further test has as its target ER in MCF-7 cells (Homo sapiens (Human), UniProt P03372). The experiment in a line: In-cell Western (ICW) ER degradation assay in MCF-7 cells. Conditions: 16 hrs treatment; for Dmax: MCF7, MCF-7, maximal ER degradation, read-out: MCF7 Dmax; for DC50: MCF-7, ER degradation, read-out: MCF7 DC50. The test is classed as cell-based.
Another test deals with ER in T47D cells (Homo sapiens (Human), UniProt P03372). Description: In-cell Western (ICW) ER degradation assay in T47D cells. Type of test: cell-based. As to conditions: 16 hrs treatment; for DC50: ER degradation; for Dmax: read-out: T47D Dmax.

pIC50: −log10 of the molar value.

Chain of CRBN/DDB1 (Q96SW2 whole entry, species assumed): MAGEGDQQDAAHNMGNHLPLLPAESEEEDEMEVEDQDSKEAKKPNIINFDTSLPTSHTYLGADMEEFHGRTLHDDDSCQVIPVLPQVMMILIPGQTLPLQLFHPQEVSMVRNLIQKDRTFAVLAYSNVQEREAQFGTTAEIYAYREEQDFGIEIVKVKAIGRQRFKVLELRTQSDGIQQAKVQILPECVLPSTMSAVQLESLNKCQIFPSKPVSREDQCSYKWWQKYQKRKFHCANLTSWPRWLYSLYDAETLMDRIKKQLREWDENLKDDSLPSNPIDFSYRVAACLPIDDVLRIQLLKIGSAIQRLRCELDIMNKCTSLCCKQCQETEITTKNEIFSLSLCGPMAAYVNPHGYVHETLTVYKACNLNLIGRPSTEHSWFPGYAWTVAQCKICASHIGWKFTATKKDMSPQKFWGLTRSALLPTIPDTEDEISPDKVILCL
Chain of CRBN/DDB1 (Q16531 whole entry partner, species assumed): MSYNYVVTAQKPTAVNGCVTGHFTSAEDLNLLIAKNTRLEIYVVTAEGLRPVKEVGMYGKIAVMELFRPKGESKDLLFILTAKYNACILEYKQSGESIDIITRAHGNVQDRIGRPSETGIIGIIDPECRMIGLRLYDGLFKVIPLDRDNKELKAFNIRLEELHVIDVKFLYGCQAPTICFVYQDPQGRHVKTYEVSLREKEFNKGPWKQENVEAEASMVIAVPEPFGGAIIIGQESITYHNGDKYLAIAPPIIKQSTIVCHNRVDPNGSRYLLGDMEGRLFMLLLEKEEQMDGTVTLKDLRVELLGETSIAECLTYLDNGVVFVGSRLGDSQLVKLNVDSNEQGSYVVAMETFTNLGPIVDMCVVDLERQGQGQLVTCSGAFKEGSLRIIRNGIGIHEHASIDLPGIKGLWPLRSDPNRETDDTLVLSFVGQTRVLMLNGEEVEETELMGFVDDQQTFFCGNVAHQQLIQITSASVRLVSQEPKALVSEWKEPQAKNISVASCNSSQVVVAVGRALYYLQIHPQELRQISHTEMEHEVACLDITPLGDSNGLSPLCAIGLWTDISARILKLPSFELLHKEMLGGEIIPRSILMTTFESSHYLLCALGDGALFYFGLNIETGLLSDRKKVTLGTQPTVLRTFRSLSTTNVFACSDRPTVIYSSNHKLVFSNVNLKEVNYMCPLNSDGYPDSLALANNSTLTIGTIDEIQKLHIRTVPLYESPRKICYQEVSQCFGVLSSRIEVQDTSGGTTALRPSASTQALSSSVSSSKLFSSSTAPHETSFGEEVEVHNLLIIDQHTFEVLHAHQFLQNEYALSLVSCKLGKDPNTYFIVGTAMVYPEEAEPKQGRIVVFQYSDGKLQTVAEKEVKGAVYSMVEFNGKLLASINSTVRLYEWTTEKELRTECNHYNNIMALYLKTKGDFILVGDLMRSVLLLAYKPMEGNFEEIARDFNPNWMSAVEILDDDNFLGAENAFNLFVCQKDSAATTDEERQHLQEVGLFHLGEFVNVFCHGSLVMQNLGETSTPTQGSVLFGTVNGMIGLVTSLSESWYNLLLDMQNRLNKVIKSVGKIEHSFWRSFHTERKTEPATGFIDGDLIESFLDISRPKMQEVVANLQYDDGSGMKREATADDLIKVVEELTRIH
Chain of ER in T47D cells (P03372 whole entry): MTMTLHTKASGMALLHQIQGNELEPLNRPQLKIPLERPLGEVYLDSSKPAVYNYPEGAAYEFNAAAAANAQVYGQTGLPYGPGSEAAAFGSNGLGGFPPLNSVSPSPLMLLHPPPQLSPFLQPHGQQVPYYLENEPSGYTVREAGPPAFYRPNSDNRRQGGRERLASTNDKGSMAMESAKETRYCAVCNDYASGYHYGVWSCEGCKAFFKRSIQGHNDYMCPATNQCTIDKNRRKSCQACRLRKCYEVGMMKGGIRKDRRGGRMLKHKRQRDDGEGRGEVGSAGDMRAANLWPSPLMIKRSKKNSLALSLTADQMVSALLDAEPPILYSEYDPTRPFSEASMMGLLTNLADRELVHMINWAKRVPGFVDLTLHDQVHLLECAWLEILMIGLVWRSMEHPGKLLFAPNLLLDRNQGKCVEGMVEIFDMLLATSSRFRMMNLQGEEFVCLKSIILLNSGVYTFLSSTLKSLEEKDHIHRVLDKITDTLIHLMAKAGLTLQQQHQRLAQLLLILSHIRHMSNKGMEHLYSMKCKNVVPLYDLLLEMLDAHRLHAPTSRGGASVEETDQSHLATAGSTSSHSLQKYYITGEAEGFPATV
Chain of ER in MCF-7 cells (P03372 whole entry): as above

The term pIC50 denotes −log10 of the IC50, conventionally taken in molar units. A word on the Dmax: it is the greatest extent of degradation seen. A word on the DC50: it is the concentration at which degradation of the target reaches its halfway point. For `O=C1CC[C@H](Nc2ccc(C3CCN(C[C@H]4COC5(CCN(c6ccc([C@@H]7c8ccc(O)cc8CC[C@@H]7c7ccccc7)cc6)CC5)C4)CC3)cc2)C(=O)N1` (single isomer, unassigned) [Compound A27], at CRBN/DDB1, the pIC50 is 6.30 to 7.30. For the same compound, the Dmax at ER in MCF-7 cells is 25 to 50%; on ER in T47D cells (maximal ER degradation), under 25%. Moreover, the DC50 on ER in MCF-7 cells is 10 to 100 nM; at ER in T47D cells it was over 100 nM.

For the compound `O=C1CC[C@H](Nc2ccc(C3CCN(C[C@@H]4COC5(CCN(c6ccc([C@@H]7c8ccc(O)cc8CC[C@@H]7c7ccccc7)cc6)CC5)C4)CC3)cc2)C(=O)N1` (single isomer, unassigned) [Compound A28], the pIC50 at CRBN/DDB1 was 6.30 to 7.30. Besides, the Dmax on ER in MCF-7 cells and on ER in T47D cells (maximal ER degradation) was 25 to 50% in each case. Further, the DC50 at ER in MCF-7 cells and on ER in T47D cells was 10 to 100 nM each time.

Regarding `O=C1CC[C@@H](Nc2ccc(C3CCN(C[C@@H]4COC5(CCN(c6ccc([C@@H]7c8ccc(O)cc8CC[C@@H]7c7ccccc7)cc6)CC5)C4)CC3)cc2)C(=O)N1` (single isomer, unassigned) [Compound A29], the negative-log IC50 (pIC50) at CRBN/DDB1 is 6.30 to 7.30. The Dmax at ER in MCF-7 cells and on ER in T47D cells (maximal ER degradation) was 25 to 50% throughout. The half-maximal degradation concentration (DC50) at ER in MCF-7 cells and on ER in T47D cells was 10 to 100 nM throughout.

As for `O=C1CC[C@H](N2Cc3c(ccc4c3OC[C@H]3CN(CC5COC6(C5)CN(c5ccc([C@@H]7c8ccc(O)cc8CC[C@@H]7c7ccccc7)cc5)C6)CCN43)C2=O)C(=O)N1` (single isomer, unassigned) [Compound A40], the pIC50 on CRBN/DDB1 is over 7.30. In addition, the DC50 on ER in MCF-7 cells and at ER in T47D cells was 10 to 100 nM each time. Further, the “MCF7 Dmax” value on ER in MCF-7 cells (MCF-7, maximal ER degradation) was “C (“C”: 25-50%)”. Besides, the “T47D Dmax” value on ER in T47D cells (maximal ER degradation) was “C (“C”: 25-50%)”.

As for `COc1cc(N2CC3(CC(CN4CCN5c6ccc7c(c6OC[C@H]5C4)CN([C@H]4CCC(=O)NC4=O)C7=O)CO3)C2)ccc1[C@H]1c2ccc(O)cc2CC[C@H]1c1ccccc1` (single isomer, unassigned) [Compound A47], the negative-log IC50 (pIC50) on CRBN/DDB1 was 6.30 to 7.30. Moreover, the Dmax on ER in MCF-7 cells fell in the range of 50 to 75%; at ER in T47D cells (maximal ER degradation), 25 to 50%. Besides, the DC50 fell in the range of 10 to 100 nM on ER in MCF-7 cells and 1 to 10 nM at ER in T47D cells.

In the case of `COc1cc(N2CC3(CC(CN4CCN5c6ccc7c(c6OC[C@H]5C4)CN([C@H]4CCC(=O)NC4=O)C7=O)CO3)C2)ccc1[C@@H]1c2ccc(O)cc2CC[C@@H]1c1ccccc1` (single isomer, unassigned) [Compound A48], the pIC50 at CRBN/DDB1 was 6.30 to 7.30. Besides, the Dmax at ER in MCF-7 cells and on ER in T47D cells (maximal ER degradation) was 50 to 75% in each case. The DC50 at ER in MCF-7 cells and on ER in T47D cells was 1 to 10 nM throughout.

In the case of `O=C1CC[C@H](Nc2ccc(C3CCN(C[C@H]4COC5(CCN(c6ccc([C@H]7c8ccc(O)cc8CC[C@H]7c7ccccc7)cc6)CC5)C4)CC3)cc2)C(=O)N1` (single isomer, unassigned) [Compound A49], at CRBN/DDB1, the negative-log IC50 (pIC50) is 6.30 to 7.30. The Dmax at ER in MCF-7 cells and at ER in T47D cells (maximal ER degradation) was 50 to 75% in each case. The DC50 at ER in MCF-7 cells and at ER in T47D cells was under 1 nM in each case.

Regarding `O=C1CC[C@H](Nc2ccc(C3CCN(C[C@@H]4COC5(CCN(c6ccc([C@H]7c8ccc(O)cc8CC[C@H]7c7ccccc7)cc6)CC5)C4)CC3)cc2)C(=O)N1` (single isomer, unassigned) [Compound A50], the pIC50 at CRBN/DDB1 was 6.30 to 7.30. The Dmax at ER in MCF-7 cells and on ER in T47D cells (maximal ER degradation) was 50 to 75% in each case. Also, the DC50 on ER in MCF-7 cells and on ER in T47D cells was under 1 nM throughout.

As to `O=C1CC[C@@H](Nc2ccc(C3CCN(C[C@H]4COC5(CCN(c6ccc([C@@H]7c8ccc(O)cc8CC[C@@H]7c7ccccc7)cc6)CC5)C4)CC3)cc2)C(=O)N1` (single isomer, unassigned) [Compound A51], on CRBN/DDB1, the pIC50 was 6.30 to 7.30. For the same compound, the Dmax on ER in MCF-7 cells and at ER in T47D cells (maximal ER degradation) was under 25% each time. Besides, the DC50 at ER in MCF-7 cells and on ER in T47D cells was over 100 nM each time.
